Source: the supplement of paper PMC10307832

Assays:
Experiment in all cases: relative viability (nuclei count vs DMSO), 5 days (fraction); higher = more cells survive
FH535 + Pemetrexed = compound: CC1=C(C=CC(=C1)[N+](=O)[O-])NS(=O)(=O)C2=C(C=CC(=C2)Cl)Cl [FH535] + Nc1nc2[nH]cc(CCc3ccc(C(=O)N[C@@H](CCC(=O)O)C(=O)O)cc3)c2c(=O)[nH]1 [Pemetrexed] (partner 0.2 µM)
Summary of the method: (§1)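 A single step with final 0.05% Triton X-100, 1% formaldehyde and 1 ug/ml Hoechst fixed the cells and stained nuclei 5 days after treatment. Lung cancer cell lines in 1536-well plates had been treated by pin tool the day after seeding with one drug alone or a fixed anchor-drug dose plus five library-drug doses (not always all listed) in √10 steps, and nuclei were counted on 4× images. Relative viability is the ratio of nuclei in treated wells to nuclei in vehicle wells, taken as the median of duplicate plates.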

FH535 + Decitabine = compound: CC1=C(C=CC(=C1)[N+](=O)[O-])NS(=O)(=O)C2=C(C=CC(=C2)Cl)Cl [FH535] + Nc1ncn([C@H]2C[C@H](O)[C@@H](CO)O2)c(=O)n1 [Decitabine] (partner 2 µM)
Summary of the method: as §1

FH535 + Olaparib = compound: CC1=C(C=CC(=C1)[N+](=O)[O-])NS(=O)(=O)C2=C(C=CC(=C2)Cl)Cl [FH535] + O=C(c1cc(Cc2n[nH]c(=O)c3ccccc23)ccc1F)N1CCN(C(=O)C2CC2)CC1 [Olaparib] (partner 8 µM)
Summary of the method: as §1

FH535 + Vorinostat = compound: CC1=C(C=CC(=C1)[N+](=O)[O-])NS(=O)(=O)C2=C(C=CC(=C2)Cl)Cl [FH535] + O=C(CCCCCCC(=O)Nc1ccccc1)NO [Vorinostat] (partner 1 µM)
Summary of the method: as §1

FH535 + Alpelisib = compound: CC1=C(C=CC(=C1)[N+](=O)[O-])NS(=O)(=O)C2=C(C=CC(=C2)Cl)Cl [FH535] + Cc1nc(NC(=O)N2CCC[C@H]2C(N)=O)sc1-c1ccnc(C(C)(C)C(F)(F)F)c1 [Alpelisib] (partner 2 µM)
Summary of the method: as §1

Cell Line	relative viability (FH535 + Pemetrexed; first compound 0.04 µM)	relative viability (FH535 + Pemetrexed; first compound 0.1265 µM)	relative viability (FH535 + Pemetrexed; first compound 0.4 µM)	relative viability (FH535 + Pemetrexed; first compound 1.265 µM)	relative viability (FH535 + Decitabine; first compound 0.04 µM)	relative viability (FH535 + Decitabine; first compound 0.1265 µM)	relative viability (FH535 + Decitabine; first compound 0.4 µM)	relative viability (FH535 + Decitabine; first compound 1.265 µM)	relative viability (FH535 + Olaparib; first compound 0.04 µM)	relative viability (FH535 + Olaparib; first compound 0.1265 µM)	relative viability (FH535 + Olaparib; first compound 0.4 µM)	relative viability (FH535 + Olaparib; first compound 1.265 µM)	relative viability (FH535 + Vorinostat; first compound 0.04 µM)	relative viability (FH535 + Vorinostat; first compound 0.1265 µM)	relative viability (FH535 + Vorinostat; first compound 0.4 µM)	relative viability (FH535 + Vorinostat; first compound 1.265 µM)	relative viability (FH535 + Alpelisib; first compound 0.04 µM)	relative viability (FH535 + Alpelisib; first compound 0.1265 µM)	relative viability (FH535 + Alpelisib; first compound 0.4 µM)	relative viability (FH535 + Alpelisib; first compound 1.265 µM)
NCI-H2170	0.262	0.253	0.252	0.259	0.433	0.473	0.443	0.447	0.624	0.585	0.49	0.389	0.713	0.816	0.768	0.69	0.853	0.965	0.784	0.769
LC-2-ad	0.271	0.296	0.249	0.31	0.773	0.892	0.764	0.713	0.74	0.703	0.713	0.526	0.603	0.714	0.677	0.521	0.489	0.963	0.898	0.618
SK-MES-1	0.934	0.906	0.913	0.849	0.356	0.347	0.429	0.386	0.729	0.756	0.6	0.497	1.1	1.19	1.02	0.918	0.865	0.941	0.855	0.881
NCI-H358	0.178	0.16	0.169	0.16	0.151	0.219	0.205	0.182	0.558	0.611	0.589	0.635	0.588	0.778	0.664	0.43	0.919	0.929	0.84	0.643
A-427	0.979	0.973	0.953	0.785	0.545	0.593	0.549	0.576	0.799	0.774	0.731	0.513	0.862	0.846	0.845	0.725	1.08	1.04	1.02	1.04
NCI-H1666	0.838	0.834	0.948	0.794	0.718	0.686	0.733	0.626	0.742	0.731	0.756	0.725	1.01	0.995	0.992	0.959	1.04	0.956	1.01	0.693
LOU-NH91	0.377	0.428	0.429	0.457	0.759	0.823	0.788	0.64	0.876	0.905	0.793	0.421	0.877	0.982	0.652	0.524	0.714	0.793	0.679	0.409
ABC-1					1.07	0.997	0.994	1.01	0.705	0.896	0.94	0.37	0.944	1	0.934	0.607	1.18	1.25	0.954	1.29
